Test results reported in patent publication US20130102009A1, “SIRTUIN ACTIVATORS AND ACTIVATION ASSAYS” (priority 2010, published 2013).
Several values for one entry are separate records, joined by “and”; a condition that tells them apart may be missing. Identical values can stand only once. Like-named read-outs stand apart in the source and are kept apart here.

Key:
[1] = target: Ac-Arg-His-Lys-Lys^Ac-NH2; assay: ITC binding of STACs to Ac-Arg-His-Lys-Lys^Ac-X, X=NH2; conditions: 10% DMSO for SRT1720, SRT2183 and 10, no cosolvent for SRT1460
Experimental: ITC experiments were performed using either a VP-ITC system or iTC200 system (MicroCal) at 26° C. in a buffer composed of 137 mM NaCl, 2.7 mM KCl, 1 mM MgCl2, 2 mM TCEP, 5% (v/v) glycerol and 50 mM HEPES-NaOH, pH 7.3. SIRT1(183-664) was purified and dialyzed against the buffer, centrifuged, and degassed before the experiment. The peptide and compounds were dissolved in the final dialysis buffer and their pH values were adjusted to match that of the protein solution. […] To characterize this interaction using the iTC200 system, 1 mM TAMRA-peptide was injected in 20 aliquots of 2 μL, (except the first injection, which was 0.5 μL) into a 0.202 mL sample cell containing 100 μM STAC. For STACs with poor solubility, the concentrations were adjusted accordingly. […] In all cases, data was corrected for the heat of dilution and fitted using a nonlinear least-squares routine using a single-site binding model with Origin for ITC v7.0383 (Microcal) with the stoichiometry (n), the enthalpy of the reaction (ΔH) and the association constant (Ka) calculated. Table 2 summarizes Kd values for the binding of STACs to […]. Note that except for SRT1460, the solubility of the compounds required that these ITC experiments be done in solutions containing 10% DMSO.

SIRT1 = target: T1, SIRT1 (Homo sapiens, UniProt Q96EB6); assay: Fits of SIRT1 activation data (TAMRA-peptide) to kinetic models: Michaelis-Menten, eq (5), eq (9); type: biochemical; conditions: for Vmax,app: data of Milne et al. fit to Michaelis-Menten equation
T1 sequence (Q96EB6 1-747): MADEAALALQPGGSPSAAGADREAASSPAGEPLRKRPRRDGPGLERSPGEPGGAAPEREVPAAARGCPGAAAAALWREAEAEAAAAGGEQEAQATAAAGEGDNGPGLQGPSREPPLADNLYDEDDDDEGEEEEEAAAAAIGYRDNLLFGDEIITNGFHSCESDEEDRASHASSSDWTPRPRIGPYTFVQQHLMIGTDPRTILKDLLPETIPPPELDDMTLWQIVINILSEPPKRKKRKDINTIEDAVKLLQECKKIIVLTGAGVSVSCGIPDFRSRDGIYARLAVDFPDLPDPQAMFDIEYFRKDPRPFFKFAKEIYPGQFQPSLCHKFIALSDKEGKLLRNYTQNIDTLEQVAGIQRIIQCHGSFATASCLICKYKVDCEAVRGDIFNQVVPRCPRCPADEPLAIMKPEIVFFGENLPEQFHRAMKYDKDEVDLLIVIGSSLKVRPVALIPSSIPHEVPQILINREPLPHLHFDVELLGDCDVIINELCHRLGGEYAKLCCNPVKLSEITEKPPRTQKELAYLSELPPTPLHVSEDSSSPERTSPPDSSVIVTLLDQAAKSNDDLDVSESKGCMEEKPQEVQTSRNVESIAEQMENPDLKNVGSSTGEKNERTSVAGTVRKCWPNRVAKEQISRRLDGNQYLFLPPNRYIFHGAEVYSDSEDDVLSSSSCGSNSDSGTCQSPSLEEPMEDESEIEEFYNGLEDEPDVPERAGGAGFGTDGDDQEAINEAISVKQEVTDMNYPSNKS
Source text: The rate law for the mechanism of FIG. 2A can be derived starting with the expression of eq (4), which was derived using the rapid equilibrium assumption. To express the rate law in terms of total and free substrate, eq (4) can be […] show in eq (5). This derivation will be complete if we can express [S] in terms of [S]o, [X]o, and Kd. This starts with the definition of Kd, given in eq (6): The rate law for the mechanism of FIG. 2B can be derived using the rapid equilibrium assumption and is given in eq (9). […] To determine if the mechanism of FIG. 2A could accommodate such an activator, we fit the activation titration curve reported in Milne et al. ((2007) Nature 450, 712-716) to the expression of eq (5). This curve is reproduced in FIG. 7A. […] In this fitting, the following constraints were used: […] If the mechanism of FIG. 2A obtains for SRT1460, parameter estimates from the two types of experiment must be the same. […] Enzyme allostery can account for the activation of the SIRT1-Catalyzed deacetylation of TAMRA-Peptide by SRT1460 When the rate law for the allosteric mechanism of activation, is used to fit the data of FIG. 7B the following best-fit parameters are obtained: Kx=8.7±0.8 μM, β=0.26±0.02, and γ=1.48±0.04. The lines drawn using eq (9) and these parameters show an excellent fit to the data. These lines superimpose on those drawn from the individual fits and the parameter estimates of Table 5.

Compound | Kd [1] | γ, best fit of activator titration curve to eq (5) (indirect mechanism of FIG. 2A) (SIRT1; [S]o and Km constrained) | γ, global fit of velocity vs substrate data at fixed activator concentrations (FIG. 7B) to eq (5) (SIRT1; Kd assigned 140 μM, data of Milne et al.) | Km (SIRT1; Kd assigned 140 μM, data of Milne et al., read-out: Km,x, global fit of velocity vs substrate data at fixed activator concentrations (FIG. 7B) to eq (5)) | Km (SIRT1; Kd, [S]o and Km constrained, read-out: Km,x, best fit of activator titration curve to eq (5) (indirect mechanism of FIG. 2A)) | Vmax,app (SIRT1; [SRT1460] 3 μM) | Vmax,app (SIRT1; [SRT1460] 11 μM) | Vmax,app (SIRT1; [SRT1460] 37 μM) | Km (SIRT1; [S]o and Km constrained, read-out: Km,x, best fit of activator titration curve to eq (5) (indirect mechanism of FIG. 2A)) | Kx, best fit of FIG. 7B data to allosteric rate law eq (9) (SIRT1; data of Milne et al.) | β, best fit of FIG. 7B data to allosteric rate law eq (9) (SIRT1; data of Milne et al.) | γ, best fit of FIG. 7B data to allosteric rate law eq (9) (SIRT1; data of Milne et al.)
CCCCc1nc(NC2CCNCC2)cc(C(=O)Nc2ccccc2-c2nc3cc(COC4CCNCC4)cnc3s2)n1 [Compound 10, 2-butyl-6-(piperidin-4-ylamino)-N-(2-(6-((piperidin-4-yloxy)methyl)thiazolo[5,4-b]pyridin-2-yl)phenyl)pyrimidine-4-carboxamide] | > 500 µM | 0.69±0.08 |  |  |  |  |  |  |  |  |  | 
COc1cc(C(=O)Nc2ccccc2-c2cn3c(CN4CCNCC4)csc3n2)cc(OC)c1OC [SRT1460] | > 500 µM | 0.20 and 0.20 ± 0.01 | 1.53±0.07 and 1.53 | 1000 ± 100 nM | 90 nM | 11 units | 12 units | 14 units | 90 nM | 8.7 ± 0.8 µM | 0.26±0.02 | 1.48±0.04
